For this test, the system named is BT-474. The test can be described thus: Antitumor activity against human BT474 cells xenografted in nude-foxn1nu mouse assessed as reduction in tumor growth at 3 mg/kg after 14 days relative to control. Type of test: functional. Also noted: scale not given: the % may be the effect or the level left. For orientation: A xenograft is tissue or cells of one species grown in another, often human tumour cells in immunodeficient mice.

As to `COc1cccc2c1C(=O)c1c(O)c3c(c(O)c1C2=O)C[C@@](O)(C(=O)CO)C[C@@H]3O[C@H]1C[C@H](N)[C@H](O)[C@H](C)O1` [DOXORUBICIN], the Activity was determined as 60%.

For the origin of these results see ChEMBL document CHEMBL1158487, “Small molecule chloropyramine hydrochloride (C4) targets the binding site of focal adhesion kinase and vascular endothelial growth factor receptor 3 and suppresses breast cancer growth in vivo” (J Med Chem, 2009).
